Assay results published in US10280198B2, “Therapeutic agents for reducing parathyroid hormone levels” (KAI PHARMACEUTICALS, INC., priority 2009, dated 2019).
Read-outs that look alike come from different tables or passages of the source. Square brackets hold non-standard residues; d marks the D form. Peptide text beside a SMILES is read from it. dNle = CCCC[C@@H](N)C(=O)O; dNva = CCC[C@@H](N)C(=O)O

How the values were obtained:
[1] = tested on: rat peritoneal mast cells; assay: In vitro histamine induction in rat peritoneal mast cells; assay type: cell-based
Description: To further evaluate the relationship between compound structure and histamine release, a series of compounds was prepared and assessed for their ability to trigger induction of histamine in an in vitro assay using rat peritoneal mast cells. In this assay, compounds are incubated at 10 μM for 15 minutes at 37° C. with cells isolated from peritoneal lavage of SD rats. Following incubation, cell medium is collected and histamine is determined.
Accordingly, and as can be appreciated in view of the PTH data and the histamine data described hereinabove, in one embodiment, a compound that has activity to decrease PTH level in a subject in the absence of a histamine response is contemplated. In certain embodiments, absence of a histamine response intends a dose of the compound that produces a less than 10-fold, more preferably 8-fold, still more preferably 5-fold, and even still more preferably 3-fold, increase in histamine, measured in vitro in an assay as described herein, where the fold change is determined based on histamine levels before incubation with the compound and after 15 minutes incubation with compound. In a specific embodiment, the histamine response is determined in an in vitro assay using rat peritoneal mast cells isolated from peritoneal lavage of normal Sprague Dawley rats, and where the fold change is determined based on histamine levels before incubation with the compound and after 15 minutes incubation with compound. In the studies conducted herein, the in vitro evaluation of histamine release was performed using isolated rat peritoneal mast cells isolated by peritoneal lavage using cold HBSS+25 mM HEPES pH 7.4 containing heparin (5 u/mL). Cells were washed twice in stimulation buffer (HBSS+25 mM HEPES pH 7.4) and incubated with 10 μM of compound in stimulation buffer (HBSS+25 mM HEPES pH 7.4) for 15 minutes in a 96-well plate ([…]) at 37° C. Cell supernatant was analyzed for histamine using histamine EIA kit (Cayman #589651).
For in vitro evaluation of histamine release, isolated rat peritoneal mast cells were isolated by performing peritoneal lavage using cold HBSS+25 mM HEPES pH 7.4 containing heparin (5 u/mL). Cells were washed twice in stimulation buffer (HBSS+25 mM HEPES pH 7.4) and incubated with 10 μM of compound in stimulation buffer (HBSS+25 mM HEPES pH 7.4) for 15 minutes in a 96-well plate (10^6/well) at 37° C. Cell supernatant was analyzed for histamine using histamine EIA kit (Cayman #589651).

plasma PTH = assay: In vivo PTH lowering after IV bolus in isoflurane-anesthetized normal Sprague Dawley rats; design: species or system rat; settings: normal rats, AUC 1-4 h
Description: The peptides were administered intravenously at a dose of 0.5 mg/kg into isoflurane-anesthetized normal Sprague Dawley rats. A control group of rats was treated with saline. Blood was drawn prior to dosing and every hour for 4 hours. Rats were maintained under isoflurane anesthesia for the entire study. […] Percent PTH reduction was calculated according to the following formula: AUCcmpd treated/AUCsaline control*100.
An intravenous (IV) bolus of saline was used as a control. Plasma (K2EDTA) PTH levels were assessed prior to dosing and 1, 2, 3 and 4 hours after dosing. Rats were maintained under isoflurane anesthesia for the entire study. […] In FIG. 2B, PTH is shown as percent of the baseline pre-dose value.
A series of compounds having an L-amino acid residue substituted for a D-amino acid residue were prepared. The compounds were administered as an IV bolus to normal Sprague Dawley rats at a dose of 0.5 mg/kg. An intravenous (IV) bolus of saline was used as a control. […] Rats were maintained under isoflurane anesthesia for the entire study.

| SMILES | Histamine in vitro Fold change of non-treated at 10 uM [1] [fold] | 0.5 mg/kg IV bolus % PTH AUC of saline control (plasma PTH; Table 6) [%] | Histamine in vitro Fold change of non-treated at 10 uM ([1]; Table 9, 10 μM, 15 minutes, 37° C.) [fold] | 0.5 mg/kg IV bolus % PTH AUC of saline control (plasma PTH; Table 7) [%] |
| --- | --- | --- | --- | --- |
| CC(=O)N[C@H](CS)C(=O)N[C@H](CCC(N)=O)C(=O)N[C@H](CCCNC(=N)N)C(=O)N[C@H](CCCNC(=N)N)C(=O)N[C@H](CCCNC(=N)N)C(=O)N[C@H](C)C(=O)N[C@H](CCCNC(=N)N)C(N)=O [SEQ ID NO: 99, Ac-cqrrrar-NH2] (Ac-[dC][dQ][dR][dR][dR][dA][dR]-NH2) | 1.9 | 24 |  |  |
| CC(=O)N[C@H](CS)C(=O)N[C@@H](C(=O)N[C@H](CCCNC(=N)N)C(=O)N[C@H](CCCNC(=N)N)C(=O)N[C@H](CCCNC(=N)N)C(=O)N[C@H](C)C(=O)N[C@H](CCCNC(=N)N)C(N)=O)[C@H](C)O [SEQ ID NO: 100, Ac-ctrrrar-NH2] (Ac-[dC][dT][dR][dR][dR][dA][dR]-NH2) | 1.1 | 23 |  |  |
| CC(=O)N[C@H](CS)C(=O)N[C@H](CO)C(=O)N[C@H](CCCNC(=N)N)C(=O)N[C@H](CCCNC(=N)N)C(=O)N[C@H](CCCNC(=N)N)C(=O)N[C@H](C)C(=O)N[C@H](CCCNC(=N)N)C(N)=O [SEQ ID NO: 102, Ac-csrrrar-NH2] (Ac-[dC][dS][dR][dR][dR][dA][dR]-NH2) | 0.9 | 13 |  |  |
| CC(=O)N[C@H](CS)C(=O)N[C@H](Cc1c[nH]cn1)C(=O)N[C@H](CCCNC(=N)N)C(=O)N[C@H](CCCNC(=N)N)C(=O)N[C@H](CCCNC(=N)N)C(=O)N[C@H](C)C(=O)N[C@H](CCCNC(=N)N)C(N)=O [SEQ ID NO: 103, Ac-chrrrar-NH2] (Ac-[dC][dH][dR][dR][dR][dA][dR]-NH2) | 1.6 | 1 |  |  |
| CC(=O)N[C@H](CS)C(=O)N[C@H](Cc1ccccc1)C(=O)N[C@H](CCCNC(=N)N)C(=O)N[C@H](CCCNC(=N)N)C(=O)N[C@H](CCCNC(=N)N)C(=O)N[C@H](C)C(=O)N[C@H](CCCNC(=N)N)C(N)=O [SEQ ID NO: 104, Ac-cfrrrar-NH2] (Ac-[dC][dF][dR][dR][dR][dA][dR]-NH2) | 6.8 | 0 |  |  |
| CC(=O)N[C@H](CS)C(=O)N[C@H](CCCNC(=N)N)C(=O)N[C@H](CCCNC(=N)N)C(=O)NCC(=O)N[C@H](CCCNC(=N)N)C(=O)N[C@H](C)C(=O)N[C@H](CCCNC(=N)N)C(N)=O [SEQ ID NO: 105, Ac-crrGrar-NH2] (Ac-[dC][dR][dR]G[dR][dA][dR]-NH2) | 1.8 | 69 |  |  |
| CC(=O)N[C@H](CS)C(=O)N[C@H](CCCNC(=N)N)C(=O)N[C@H](CCCNC(=N)N)C(=O)N1CCC[C@@H]1C(=O)N[C@H](CCCNC(=N)N)C(=O)N[C@H](C)C(=O)N[C@H](CCCNC(=N)N)C(N)=O [SEQ ID NO: 106, Ac-crrprar-NH2] (Ac-[dC][dR][dR][dP][dR][dA][dR]-NH2) | 1.1 | 68 |  |  |
| CC(=O)N[C@H](CS)C(=O)N[C@H](CCCNC(=N)N)C(=O)N[C@H](CCCNC(=N)N)C(=O)N[C@H](CCC(=O)O)C(=O)N[C@H](CCCNC(=N)N)C(=O)N[C@H](C)C(=O)N[C@H](CCCNC(=N)N)C(N)=O [SEQ ID NO: 107, Ac-crrerar-NH2] (Ac-[dC][dR][dR][dE][dR][dA][dR]-NH2) |  | 56 | 0.6 |  |
| CC(=O)N[C@H](CS)C(=O)N[C@H](CCCNC(=N)N)C(=O)N[C@H](CCCNC(=N)N)C(=O)N[C@@H](C(=O)N[C@H](CCCNC(=N)N)C(=O)N[C@H](C)C(=O)N[C@H](CCCNC(=N)N)C(N)=O)[C@H](C)O [SEQ ID NO: 108, Ac-crrtrar-NH2] (Ac-[dC][dR][dR][dT][dR][dA][dR]-NH2) | 1.2 | 13 |  |  |
| CC(=O)N[C@H](CS)C(=O)N[C@H](CCCNC(=N)N)C(=O)N[C@H](CCCNC(=N)N)C(=O)N[C@H](Cc1c[nH]cn1)C(=O)N[C@H](CCCNC(=N)N)C(=O)N[C@H](C)C(=O)N[C@H](CCCNC(=N)N)C(N)=O [SEQ ID NO: 109, Ac-crrhrar-NH2] (Ac-[dC][dR][dR][dH][dR][dA][dR]-NH2) | 2.3 | 9 |  |  |
| CC(=O)N[C@H](CS)C(=O)N[C@H](CCCNC(=N)N)C(=O)N[C@H](CCCNC(=N)N)C(=O)N[C@H](Cc1ccccc1)C(=O)N[C@H](CCCNC(=N)N)C(=O)N[C@H](C)C(=O)N[C@H](CCCNC(=N)N)C(N)=O [SEQ ID NO: 110, Ac-crrfrar-NH2] (Ac-[dC][dR][dR][dF][dR][dA][dR]-NH2) | 6.2 | 6 |  |  |
| CC(=O)N[C@H](CS)C(=O)N[C@H](CCCNC(=N)N)C(=O)N[C@H](CCCNC(=N)N)C(=O)N[C@H](CO)C(=O)N[C@H](CCCNC(=N)N)C(=O)N[C@H](C)C(=O)N[C@H](CCCNC(=N)N)C(N)=O [SEQ ID NO: 111, Ac-crrsrar-NH2] (Ac-[dC][dR][dR][dS][dR][dA][dR]-NH2) | 2.0 | 4 |  |  |
| CC(=O)N[C@H](CS)C(=O)N[C@H](CCCNC(=N)N)C(=O)N[C@H](CCCNC(=N)N)C(=O)N[C@H](CCC(N)=O)C(=O)N[C@H](CCCNC(=N)N)C(=O)N[C@H](C)C(=O)N[C@H](CCCNC(=N)N)C(N)=O [SEQ ID NO: 112, Ac-crrqrar-NH2] (Ac-[dC][dR][dR][dQ][dR][dA][dR]-NH2) | 1.2 | 4 |  |  |
| CC(=O)N[C@H](CS)C(=O)N[C@H](CCCNC(=N)N)C(=O)N[C@H](CCCNC(=N)N)C(=O)N[C@@H](C(=O)N[C@H](CCCNC(=N)N)C(=O)N[C@H](C)C(=O)N[C@H](CCCNC(=N)N)C(N)=O)C(C)C [SEQ ID NO: 113, Ac-crrvrar-NH2] (Ac-[dC][dR][dR][dV][dR][dA][dR]-NH2) | 1.9 | 3 |  |  |
| CC(=O)N[C@H](CS)C(=O)N[C@H](CCCNC(=N)N)C(=O)N[C@H](CCCNC(=N)N)C(=O)N[C@H](CC(C)C)C(=O)N[C@H](CCCNC(=N)N)C(=O)N[C@H](C)C(=O)N[C@H](CCCNC(=N)N)C(N)=O [SEQ ID NO: 114, Ac-crrlrar-NH2] (Ac-[dC][dR][dR][dL][dR][dA][dR]-NH2) | 4.5 | 1 |  |  |
| CC[C@@H](C)[C@@H](NC(=O)[C@@H](CCCNC(=N)N)NC(=O)[C@@H](CCCNC(=N)N)NC(=O)[C@@H](CS)NC(C)=O)C(=O)N[C@H](CCCNC(=N)N)C(=O)N[C@H](C)C(=O)N[C@H](CCCNC(=N)N)C(N)=O [SEQ ID NO: 115, Ac-crrirar-NH2] (Ac-[dC][dR][dR][dI][dR][dA][dR]-NH2) | 3.4 | 0 |  |  |
| CCCC[C@@H](NC(=O)[C@@H](CCCNC(=N)N)NC(=O)[C@@H](CCCNC(=N)N)NC(=O)[C@@H](CCCNC(=N)N)NC(=O)[C@@H](CCCC)NC(=O)[C@@H](CS)NC(C)=O)C(=O)N[C@H](CCCNC(=N)N)C(N)=O [SEQ ID NO: 130, Ac-c-dNle-rrr-dNle-r-NH2] (Ac-[dC][dNle][dR][dR][dR][dNle][dR]-NH2) | 9.2 |  |  | 54 |
| CCC[C@@H](NC(=O)[C@@H](CCCNC(=N)N)NC(=O)[C@@H](CCCNC(=N)N)NC(=O)[C@@H](CCCNC(=N)N)NC(=O)[C@@H](C)NC(=O)[C@@H](CS)NC(C)=O)C(=O)N[C@H](CCCNC(=N)N)C(N)=O [SEQ ID NO: 131, Ac-carrr-dNva-r-NH2] (Ac-[dC][dA][dR][dR][dR][dNva][dR]-NH2) | 1.8 |  |  | 54 |
